Test systems include A498 renal; HCT-116 colon; HOP-92 NSCLC; HS 578T breast; LOX IMVI melanoma; NCI-H226 lung; OVCAR-5 ovarian; UACC-257 melanoma.
Common to all, as to test: NCI-60 cell line screen, 48 h

SMILES strings stand for the structures.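 48-hour exposure; five concentrations; linearly interpolated endpoints. Abbreviation: GI50, concentration required for 50% inhibition of growth. TGI denotes the concentration required for complete inhibition of growth.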

For `COc1cc(/C=C2\SC(N3CCCCC3)=NC2=O)ccc1OCCCCCCOc1ccc(/C=C2\SC(N3CCCCC3)=NC2=O)cc1OC`, the GI50 in the assay on A498 renal is 12.8 µM; with HCT-116 colon, 12.6 µM; in the assay with HOP-92 NSCLC it was 2.47 µM; in the assay on HS 578T breast it was 3.74 µM; with LOX IMVI melanoma it was 8.35 µM; with NCI-H226 lung it was 5.18 µM. Further, the GI50 was 22.9 µM in the assay on OVCAR-5 ovarian and 17.4 µM in the assay with UACC-257 melanoma. Further, the TGI in the assay with A498 renal was determined as 46.2 µM; in the assay on HCT-116 colon, 31.2 µM; in the assay with HOP-92 NSCLC it was 8.95 µM; in the assay with HS 578T breast, 25.7 µM; with LOX IMVI melanoma, 35.7 µM; in the assay with NCI-H226 lung, 22 µM. Also, the figures for the TGI in the assay on OVCAR-5 ovarian and in the assay on UACC-257 melanoma were 59.1 µM and 47.6 µM, respectively.

For the compound `C=C1C[C@@H]2O[C@H]3[C@H]4[C@@H](CC[C@@](C)(OC(=O)CCC)[C@H]42)[C@@H](C)C(=O)O[C@@]3(C)CC[C@H]1OO`, the GI50 with A498 renal was more than 100 µM; in the assay with HCT-116 colon it was 24.3 µM; with HOP-92 NSCLC it was 13.3 µM; in the assay with HS 578T breast, more than 100 µM; in the assay on LOX IMVI melanoma it was 15.4 µM; in the assay with NCI-H226 lung, 17 µM. In addition, the GI50 in the assay with OVCAR-5 ovarian was more than 100 µM; with UACC-257 melanoma, 26.2 µM. Also, the TGI is more than 100 µM with A498 renal; 54.6 µM in the assay with HCT-116 colon; 26 µM in the assay on HOP-92 NSCLC; more than 100 µM with HS 578T breast; 28.7 µM with LOX IMVI melanoma; 32.2 µM in the assay on NCI-H226 lung. The TGI in the assay with OVCAR-5 ovarian was more than 100 µM; in the assay with UACC-257 melanoma, 76.7 µM.

For the compound `COc1ccc2c(c1)C(=O)c1c-2c(OCCN(C)C)nc2cc(OC)c(OC)cc12`, the GI50 with A498 renal was 13.2 µM; with HCT-116 colon, 1.08 µM; in the assay with HOP-92 NSCLC it was 3.22 µM; in the assay on HS 578T breast, 12.8 µM; in the assay with LOX IMVI melanoma, 1.01 µM; in the assay with NCI-H226 lung, 2.95 µM. The GI50 is 23.7 µM with OVCAR-5 ovarian and more than 100 µM with UACC-257 melanoma. Besides, the TGI was 99.1 µM in the assay on A498 renal; 19.6 µM with HCT-116 colon; 19.6 µM in the assay with HOP-92 NSCLC; 35.7 µM with HS 578T breast; 12.3 µM with LOX IMVI melanoma; 22.1 µM in the assay with NCI-H226 lung. Also, the TGI was 55.9 µM with OVCAR-5 ovarian and more than 100 µM with UACC-257 melanoma.

For the compound `CC1OC(OC2C(O)C(O)C(O)C(O)C2O)C(N)CC1N=C(N)C(=O)O` (stereo unspecified), the TGI with A498 renal, with HCT-116 colon, in the assay with HOP-92 NSCLC, in the assay on HS 578T breast, in the assay with LOX IMVI melanoma and with NCI-H226 lung was more than 100 µM in each case. The TGI with OVCAR-5 ovarian and with UACC-257 melanoma was more than 100 µM each time.

In the case of `CCOC(=O)/C(=C\c1ccc2ccccc2c1)P(=O)(OCC)OCC`, the GI50 in the assay with A498 renal was 3.73 µM; in the assay with HCT-116 colon, 2.22 µM; in the assay on HOP-92 NSCLC, 2.44 µM; in the assay on HS 578T breast, 7.17 µM; in the assay on LOX IMVI melanoma, 1.58 µM; in the assay on NCI-H226 lung, 2.39 µM. In addition, the figures for the GI50 in the assay with OVCAR-5 ovarian and in the assay with UACC-257 melanoma were 3.95 µM and 2.59 µM, respectively. The TGI with A498 renal came out at 10.9 µM; in the assay with HCT-116 colon it was 5.08 µM; in the assay with HOP-92 NSCLC, 5.31 µM; in the assay on HS 578T breast it was 75.8 µM; in the assay on LOX IMVI melanoma, 3.08 µM; in the assay on NCI-H226 lung, 5.88 µM. Also, the TGI in the assay on OVCAR-5 ovarian turned out to be 13.9 µM; in the assay with UACC-257 melanoma, 7.14 µM.

In the case of `COc1cccc(-c2nc3sccn3c2-c2ccnc(NCCCNS(=O)(=O)c3ccccc3)c2)c1`, the GI50 was 2.92 µM in the assay on A498 renal; 3.32 µM with HCT-116 colon; 0.885 µM in the assay with HOP-92 NSCLC; 3.51 µM in the assay with HS 578T breast; 3.12 µM with LOX IMVI melanoma; 2.92 µM in the assay with NCI-H226 lung. The GI50 in the assay on OVCAR-5 ovarian is 5.45 µM; in the assay with UACC-257 melanoma, 3.57 µM. The TGI in the assay on A498 renal, in the assay on HCT-116 colon, in the assay on HOP-92 NSCLC, in the assay on HS 578T breast, with LOX IMVI melanoma and with NCI-H226 lung was more than 100 µM each time. For the same compound, the TGI in the assay with OVCAR-5 ovarian and in the assay on UACC-257 melanoma was more than 100 µM in each case.

For the compound `CCc1ccc2c(c1)N(CCO)C1=C(C(=O)OC1)C2c1cc(OC)c(OC)c(OC)c1` (stereo unspecified), the GI50 was 0.103 µM in the assay on A498 renal; 0.188 µM in the assay on HCT-116 colon; 0.716 µM with HOP-92 NSCLC; 0.218 µM with HS 578T breast; 0.318 µM in the assay on LOX IMVI melanoma; 0.178 µM with NCI-H226 lung. In addition, the figures for the GI50 in the assay on OVCAR-5 ovarian and in the assay on UACC-257 melanoma were 0.422 µM and 0.197 µM, respectively. For the same compound, the TGI in the assay with A498 renal was 0.932 µM; in the assay with HCT-116 colon, 1.77 µM; with HOP-92 NSCLC, more than 50 µM; in the assay on HS 578T breast, more than 50 µM; in the assay on LOX IMVI melanoma it was more than 50 µM; in the assay on NCI-H226 lung, 2.44 µM. Moreover, the TGI in the assay with OVCAR-5 ovarian and in the assay with UACC-257 melanoma was more than 50 µM in each case.

On to `C#C[C@]1(O)CC[C@H]2[C@@H]3CC=C4c5nc(N)sc5CC[C@]4(C)[C@H]3CC[C@@]21C`, for which the GI50 in the assay on A498 renal was 1.96 µM; with HCT-116 colon, 3.91 µM; in the assay on HOP-92 NSCLC, 3.7 µM; with HS 578T breast, 2.55 µM; with LOX IMVI melanoma, 1.92 µM; with NCI-H226 lung it was 2.76 µM. Further, the GI50 with OVCAR-5 ovarian was 11.8 µM; in the assay with UACC-257 melanoma, 2.36 µM. The TGI with A498 renal was 4.21 µM; with HCT-116 colon, 19.6 µM; in the assay on HOP-92 NSCLC it was 19.5 µM; with HS 578T breast, 7.94 µM; in the assay on LOX IMVI melanoma, 4.04 µM; in the assay with NCI-H226 lung it was 7.56 µM. Moreover, the TGI in the assay with OVCAR-5 ovarian worked out at 36.9 µM; with UACC-257 melanoma, 6.86 µM.

Consider `CN1CC[C@H](c2c(O)cc(O)c3c(=O)cc(-c4ccccc4Cl)oc23)[C@H](O)C1`, for which the GI50 with A498 renal was 0.0215 µM; in the assay with HCT-116 colon, 0.0123 µM; in the assay with HOP-92 NSCLC, 0.0693 µM; in the assay with HS 578T breast, 0.0618 µM; in the assay with LOX IMVI melanoma, 0.00602 µM; in the assay with NCI-H226 lung, 0.0695 µM. In addition, the GI50 is 0.0533 µM in the assay with OVCAR-5 ovarian and 0.128 µM in the assay on UACC-257 melanoma. Further, the TGI is 0.062 µM with A498 renal; more than 10 µM in the assay with HCT-116 colon; 0.524 µM in the assay with HOP-92 NSCLC; 0.398 µM in the assay on HS 578T breast; more than 10 µM with LOX IMVI melanoma; 0.46 µM in the assay on NCI-H226 lung. The TGI was more than 10 µM in the assay with OVCAR-5 ovarian and 0.91 µM with UACC-257 melanoma.

The values are drawn from PubChem BioAssay (NCI).
